# Test results from publication PMC7906907, “Targeting STAT3 by a small molecule suppresses pancreatic cancer progression” (Oncogene, 2021).
# Experiments:
# [1] = biological target: T1, STAT3 dimerization (Homo sapiens, UniProt P40763); assay: STAT3 dimerization experiment (immunoprecipitation); type: cell-based; details: PANC-1 cells, 2 μM, with or without IL-6 stimulation
# T1 construct: endogenous in cells; host or cells: PANC-1
# From the text: (§1) Fig. 3 N4 interacts with the STAT3-SH2 domain and interferes with the STAT3-EGFR and STAT3-NF-κB interactions. […] C–E The binding between N4 and STAT3 was examined in (C) SPR and (D) MST experiments. His-STAT3^127-722 protein was purified and used to examine the affinity between STAT3 and N4. (E) The binding between N4 and STAT3^SH2 was confirmed in MST assays. STAT3-SH2 protein was purified and labeled. N4 was serially diluted and mixed with equal volumes of labeled STAT3^SH2 protein. The MST signal was measured, and the data were analyzed by MO analysis software. F, G The FLAG-tag and HA-tag STAT3 expression plasmid was transfected into 293 T cells, followed by the addition of the indicated concentrations of N4. After 24 h, cells were lysed, and immunoprecipitation experiments were performed as described in Materials and Methods. H N4 represses STAT3 dimerization in pancreatic cancer cells. I After a 24 h treatment with 2 μM N4, pancreatic cancer cells were stimulated with IL-6 for 30 min. Cell lysates were immunoprecipitated with STAT3 overnight. The precipitates were washed, suspended in non-reducing sample buffer, and boiled for 10 min. The indicated antibodies were used for western blot assays. […]
# Co-IP was performed as previously described. […] After overnight incubation, the precipitates were washed and analyzed using western blotting.
# [2] = tested on: PANC-1 cells; assay: PANC-1 shNC / shSTAT3 xenograft with drug withdrawal; type: in vivo, Mice
# From the text: To provide further evidence that STAT3 is the direct target of N4, we constructed two STAT3 stable knockdown cell lines by the short hairpin RNA (shRNA) (Supplementary Fig. S10A), and the sequence of shRNA was list in Supplementary Table S3. […] At the meantime, the effect of drug withdrawal on tumor volume and weight was also examined. After 20 days of treatment, all the drug or vehicle were removed and the tumor was allowed to grow for another 12 days. […] Thus, N4 kept the suppression on tumor growth compared to vehicle group during the drug withdrawal period.
# Supplementary Figure 10. STAT3 knockdown cells are resistant to N4 in vivo. (A) PANC-1 cells were transfected with shRNA that targeted STAT3 or negative control, and the knockdown efficiency was examined by western blot. (B) Mice bearing the PANC-1 cells within STAT3 stable knockdown (shSTAT3-1#) or negative control (shNC), and administration N4 or vehicle (control) every day by i.p. After 20 days treatment, the N4 and vehicle were removed for another 12 days. Then the mice were sacrificed and the tumor was removed and photographed (n=5 per group). (C) The tumor volume was measured every 3-4 days and the volume was calculated by the formula: length × width2 ×0.52, data are shown as mean ± SD, ****P < 0.0001 and n.s., not significant by one-way ANOVA followed by multiple-comparison tests. (D) After […]
# [3] = tested on: PAN02-luc; assay: Orthotopic pancreatic cancer tumor model; type: in vivo, C57BL/6 mice
# Experimental: Fig. 7 N4 inhibits tumor growth in an orthotopic pancreatic cancer model. C57BL/6 mice were injected the tail of the pancreas with luciferase-expressing PAN02 cells (PAN02-luc) in matrigel and tumor growth was assessed (A) and quantified (B) by bioluminescent imaging weekly. Data represent the mean ± SD; *P < 0.05, **P < 0.01, ***P < 0.001, ****P < 0.0001, n.s. not significant by one-way ANOVA followed by multiple-comparison tests. (n = 5 mice per group) C After 4 weeks, mice were sacrificed and the pancreas were imaged. The tumor of pancreas were photographed (D) and weighted (E), scale bar, 0.5 cm.
# Briefly, specimens of tumor tissue from xenograft models and orthotopic models were fixed with 4% paraformaldehyde solution at 4 °C overnight. […] Then, according to the manufacturer’s instructions (SK-4100; Vector laboratories), the avidin-biotin peroxidase complex was used, followed by colorimetric detection using DAB. Finally, hematoxylin was used to counterstain the sections and coverslips were mounted.
# C57BL/6 mice, male, 4–6 week old were obtained from the Animal Center of East China Normal University. All animal experimental protocols were approved by the Animal Investigation Committee of the Institute of Biomedical Sciences, East China Normal University. PAN02 cells that stably expressed luciferase (PAN02-luc) were embedded in Matrigel (BD Biosciences) were injected with 5 × 10^5 in the tail of the pancreas. On the next day (day 0), the mice were subjected to bioluminescent imaging and divided into four groups according to the luciferase luminescence value. Mice were treated with intraperitoneal injection of indicated compound or drug. Tumor growth was analyzed once a week by an IVIS Imaging System (Xenogen Corporation, Alameda, CA) and end of study tumor weight was determined immediately postmortem. […] Images and measurements of bioluminescent signals were acquired and analyzed using Living Image and Xenogen software.
# [4] = biological target: His-STAT3^127-722 protein (Homo sapiens, UniProt P40763); assay: Microscale thermophoresis (MST) assay, STAT3^127–722; type: binding; set-up: made in house
# Chain of His-STAT3^127-722 protein (P40763 127-722): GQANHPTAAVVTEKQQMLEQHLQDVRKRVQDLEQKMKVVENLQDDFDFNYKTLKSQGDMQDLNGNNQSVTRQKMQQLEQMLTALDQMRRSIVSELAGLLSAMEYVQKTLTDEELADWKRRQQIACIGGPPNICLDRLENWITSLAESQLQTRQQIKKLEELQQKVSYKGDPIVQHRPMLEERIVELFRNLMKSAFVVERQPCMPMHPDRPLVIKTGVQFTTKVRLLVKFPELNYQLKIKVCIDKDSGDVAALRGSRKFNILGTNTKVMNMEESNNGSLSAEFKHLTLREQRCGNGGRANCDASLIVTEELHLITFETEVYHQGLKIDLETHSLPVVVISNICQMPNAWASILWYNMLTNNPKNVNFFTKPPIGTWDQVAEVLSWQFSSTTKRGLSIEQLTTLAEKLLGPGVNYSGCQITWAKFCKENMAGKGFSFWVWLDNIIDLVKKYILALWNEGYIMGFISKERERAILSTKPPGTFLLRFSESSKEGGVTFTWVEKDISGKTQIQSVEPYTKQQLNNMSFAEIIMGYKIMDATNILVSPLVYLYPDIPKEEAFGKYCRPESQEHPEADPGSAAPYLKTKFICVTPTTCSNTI
# From the text: as §1, with “overnight.” for “overnight. The precipitates were washed, suspended in non-reducing sample buffer, and boiled for 10 min. The indicated antibodies were used for western blot assays.”
# The MST assay was previously described. Binding affinities of N4 with the purified His-STAT3-SH2 were measured using the Monolith NT.115 device (NanoTemper Technologies). […] The samples were then loaded into premium capillaries (NanoTemper Technologies) and measured using the Monolith NT.115 device. […]
# T1 sequence (P40763 2-770 limits assumed): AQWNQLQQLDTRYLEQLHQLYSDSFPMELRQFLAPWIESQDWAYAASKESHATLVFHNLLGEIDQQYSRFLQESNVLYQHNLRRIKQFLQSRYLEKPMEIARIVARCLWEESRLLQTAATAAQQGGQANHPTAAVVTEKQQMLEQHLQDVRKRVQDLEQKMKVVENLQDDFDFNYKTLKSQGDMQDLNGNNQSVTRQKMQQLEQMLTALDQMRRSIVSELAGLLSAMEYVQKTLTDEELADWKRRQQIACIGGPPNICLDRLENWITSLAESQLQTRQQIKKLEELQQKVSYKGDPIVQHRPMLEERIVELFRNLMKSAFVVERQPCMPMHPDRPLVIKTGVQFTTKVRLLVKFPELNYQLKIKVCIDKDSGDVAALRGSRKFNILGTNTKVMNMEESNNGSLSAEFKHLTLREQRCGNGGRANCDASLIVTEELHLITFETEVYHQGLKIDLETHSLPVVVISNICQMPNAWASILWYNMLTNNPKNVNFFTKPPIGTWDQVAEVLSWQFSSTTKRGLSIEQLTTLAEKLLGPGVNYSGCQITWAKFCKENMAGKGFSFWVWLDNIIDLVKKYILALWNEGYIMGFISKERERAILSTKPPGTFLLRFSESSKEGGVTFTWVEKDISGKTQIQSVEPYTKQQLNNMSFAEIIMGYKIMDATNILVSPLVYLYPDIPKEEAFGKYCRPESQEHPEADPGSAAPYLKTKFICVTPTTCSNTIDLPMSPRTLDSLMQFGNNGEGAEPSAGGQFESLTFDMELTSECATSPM
compound,measurement,setting,value
COc1cc2c(cc1C(=O)Nc1cccc3cccnc13)CCC1C(C)(C)C(=O)C(C#N)=C[C@]21C (stereo partly shown) [N4],STAT3 dimerization,[1],efficiently decreased
same,sensitivity of STAT3 stable knockdown cells to treatment,[2]; compared with control cells,not sensitive
same,increase in tumor volume during the drug withdrawal period,"[2]; shNC-N4 group, 20 days treatment i.p., then 12 days withdrawal",249.49 mm^3
same,expression of stromal cells marker α-SMA in vivo,[3]; IHC of tumor tissue,drastically suppressed
same,expression of vimentin in vivo,[3]; IHC of tumor tissue,significantly suppressed
same,number of TAM (F4/80+ macrophages),[3]; IHC of tumor tissue,significantly decreased
same,tumor volume suppressed compared with the control group,"[3]; week 4, 10 mg/kg/d",97.34%
same,tumor volume suppressed compared with the control group,"[3]; week 4, 20 mg/kg/d",98.88%
same,Kd,"[4]; STAT3^127-722, value printed in figure",2020 nM
same,Kd,[4]; STAT3^127–722,2020 nM
